Test results taken from patent US6914045B2, “Glycopeptide antibiotics” (Wyeth Holdings Corporation, priority 2001, dated 2005).
≈ marks a conversion by molar mass, not a printed value. Blank lines part the entries; values can stand above or below the compound they belong to. Numbered stars: 1 amine (or outer) side, 2 acyl side, 3 side chain; on linkers, the order of the positions; unused ones are H or OH. Square brackets hold non-standard residues; d marks the D form. Peptide text beside a SMILES is read from it. ξ: configuration not given here. X3 = CC1(C)OCC2OC(N3C(=N)NCC3C(O)C(N[*:1])C(=O)[*:2])C3OC(C)(C)OC3C2O1; ξEnduracididine(βξ-OH,4'ξ) = N=C1NCC(C(O)C(N)C(=O)O)N1; ξPhe(βξ-Me) = CC(c1ccccc1)C(N)C(=O)O

Columns and labels:
Assay in all cases: in vitro antibacterial evaluation, MIC by broth dilution
Format in all cases: cell-based
Enterococcus sp. = conditions: broth dilution, 18 hours at 35° C.
In short: (§1)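 Inoculum 5×10^5 CFU/mL; concentrations 64 to 0.06 μg/mL; MIC defined as lowest inhibitory level. Conducted by broth dilution under NCCLS guidelines.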

Staphylococcus sp. = conditions: broth dilution, 18 hours at 35° C.
In short: as §1

Streptococcus sp. = conditions: broth dilution, 18 hours at 35° C.
In short: as §1

Escherichia coli = conditions: 18 hours at 35° C.

- MIC Enterococcus avium (GC 4558) (Enterococcus sp.): >64 mg/L
- MIC Enterococcus faecalis (ATCC 29212) (Enterococcus sp.): >64 mg/L
- MIC Enterococcus faecalis (GC 2242) (Enterococcus sp.): >64 mg/L
- MIC Enterococcus faecalis (GC 2691) (Enterococcus sp.): >64 mg/L
- MIC Enterococcus faecalis (GC 3059) (Enterococcus sp.): >64 mg/L
- MIC Enterococcus faecalis (GC 4552) (Enterococcus sp.): >64 mg/L
- MIC Enterococcus faecalis (GC 4553) (Enterococcus sp.): >64 mg/L
- MIC Enterococcus faecalis (GC 4554) (Enterococcus sp.): >64 mg/L
- MIC Enterococcus faecalis (GC 6189) (Enterococcus sp.): >64 mg/L
- MIC Enterococcus faecium (GC 2243) (Enterococcus sp.): >64 mg/L
- MIC Enterococcus faecium (GC 4556) (Enterococcus sp.): >64 mg/L
- MIC Enterococcus faecium (GC 4557) (Enterococcus sp.): >64 mg/L
- MIC Coagulase Negative Staphylococcus (GC 4547) (Staphylococcus sp.): >64 mg/L
- MIC Coagulase Negative Staphylococcus (GC 4548) (Staphylococcus sp.): >64 mg/L
- MIC Coagulase Negative Staphylococcus (GC 4549) (Staphylococcus sp.): >64 mg/L
- MIC Coagulase Negative Staphylococcus (GC 4551) (Staphylococcus sp.): >64 mg/L
- MIC Coagulase Negative Staphylococcus (GC 6257) (Staphylococcus sp.): >64 mg/L
- MIC Staphylococcus aureus (ATCC 29213) (Staphylococcus sp.): >64 mg/L
- MIC Staphylococcus aureus (GC 1131) (Staphylococcus sp.): >64 mg/L
- MIC Staphylococcus aureus (GC 3051) (Staphylococcus sp.): >64 mg/L
- MIC Staphylococcus aureus (GC 3053) (Staphylococcus sp.): >64 mg/L
- MIC Staphylococcus aureus (GC 4541) (Staphylococcus sp.): >64 mg/L
- MIC Staphylococcus aureus (GC 4542) (Staphylococcus sp.): >64 mg/L
- MIC Staphylococcus aureus (GC 4544) (Staphylococcus sp.): >64 mg/L
- MIC Staphylococcus aureus (GC 4545) (Staphylococcus sp.): >64 mg/L
- MIC Staphylococcus aureus-SMITH (GC 4543) (Staphylococcus sp.): >64 mg/L
- MIC Streptococcus agalactiae (GC 4564) (Streptococcus sp.): >64 mg/L
- MIC Streptococcus pneumoniae (ATCC 6301) (Streptococcus sp.): >64 mg/L
- MIC Streptococcus pneumoniae (GC 1894) (Streptococcus sp.): >64 mg/L
- MIC Streptococcus pneumoniae (GC 4565) (Streptococcus sp.): >64 mg/L
- MIC Streptococcus pyogenes (GC 4563) (Streptococcus sp.): >64 mg/L
- MIC Escherichia coli (ATCC 25922) (Escherichia coli): >64 mg/L
- MIC Escherichia coli (GC 4559) (Escherichia coli): >64 mg/L
- MIC Escherichia coli (GC 4560) (Escherichia coli): >64 mg/L
Compound: CC(c1ccccc1)C1NC(=O)CNC(=O)C(CO)NC(=O)C(C(O)C2CNC(=N)N2C2OC3COC(C)(C)OC3C3OC(C)(C)OC32)NC(=O)C(C(O)C2CNC(=N)N2)NC(=O)C(Cc2ccc(O)cc2)NC1=O (stereo not drawn) [Example 247] (cyclo(G[ξPhe(βξ-Me)]Y[ξEnduracididine(βξ-OH,4'ξ)][X3]S); configuration not given here)
- MIC Staphylococcus haemolyticus (GC 4546) (Staphylococcus sp.): >64 mg/L

- MIC Enterococcus avium (GC 4558) (Enterococcus sp.): 16 mg/L (≈ 11.2 µM)
- MIC Enterococcus faecalis (ATCC 29212) (Enterococcus sp.): 16 mg/L (≈ 11.2 µM)
- MIC Enterococcus faecalis (GC 2242) (Enterococcus sp.): 16 mg/L (≈ 11.2 µM)
- MIC Enterococcus faecalis (GC 2691) (Enterococcus sp.): 16 mg/L (≈ 11.2 µM)
- MIC Enterococcus faecalis (GC 3059) (Enterococcus sp.): 32 mg/L (≈ 22.3 µM)
- MIC Enterococcus faecalis (GC 4552) (Enterococcus sp.): 16 mg/L (≈ 11.2 µM)
- MIC Enterococcus faecalis (GC 4553) (Enterococcus sp.): 16 mg/L (≈ 11.2 µM)
- MIC Enterococcus faecalis (GC 4554) (Enterococcus sp.): 32 mg/L (≈ 22.3 µM)
- MIC Enterococcus faecalis (GC 6189) (Enterococcus sp.): 16 mg/L (≈ 11.2 µM)
- MIC Enterococcus faecium (GC 2243) (Enterococcus sp.): 16 mg/L (≈ 11.2 µM)
- MIC Enterococcus faecium (GC 4556) (Enterococcus sp.): 16 mg/L (≈ 11.2 µM)
- MIC Enterococcus faecium (GC 4557) (Enterococcus sp.): 4 mg/L (≈ 2.79 µM)
- MIC Enterococcus faecalis (ATCC 29212) (Enterococcus sp.; strain ATCC 29212): 16 mg/L (≈ 11.2 µM)
- MIC Enterococcus faecium (GC 2243) (Enterococcus sp.; strain GC 2243): 16 mg/L (≈ 11.2 µM)
- MIC Enterococcus faecalis (GC 4552) (Enterococcus sp.; strain GC 4552): 16 mg/L (≈ 11.2 µM)
- MIC Enterococcus faecalis (GC 4553) (Enterococcus sp.; strain GC 4553): 16 mg/L (≈ 11.2 µM)
- MIC Enterococcus faecalis (GC 4554) (Enterococcus sp.; strain GC 4554): 32 mg/L (≈ 22.3 µM)
- MIC Enterococcus faecium (GC 4556) (Enterococcus sp.; strain GC 4556): 16 mg/L (≈ 11.2 µM)
- MIC Enterococcus faecium (GC 4557) (Enterococcus sp.; strain GC 4557): 4 mg/L (≈ 2.79 µM)
- MIC Enterococcus avium (GC 4558) (Enterococcus sp.; strain GC 4558): 16 mg/L (≈ 11.2 µM)
- MIC Enterococcus faecalis (GC 6189) (Enterococcus sp.; strain GC 6189): 16 mg/L (≈ 11.2 µM)
- MIC Enterococcus faecalis (GC 2242) (Enterococcus sp.; inoculum 5×10^5 CFU/mL, strain GC 2242): 16 mg/L (≈ 11.2 µM)
- MIC Enterococcus faecalis (GC 2691) (Enterococcus sp.; inoculum 5×10^5 CFU/mL, strain GC 2691): 16 mg/L (≈ 11.2 µM)
- MIC Enterococcus faecalis (GC 3059) (Enterococcus sp.; inoculum 5×10^5 CFU/mL, strain GC 3059): 32 mg/L (≈ 22.3 µM)
- MIC Coagulase Negative Staphylococcus (GC 4547) (Staphylococcus sp.): 2 mg/L (≈ 1.4 µM)
- MIC Coagulase Negative Staphylococcus (GC 4548) (Staphylococcus sp.): 1 mg/L (≈ 0.698 µM)
- MIC Coagulase Negative Staphylococcus (GC 4549) (Staphylococcus sp.): 1 mg/L (≈ 0.698 µM)
- MIC Coagulase Negative Staphylococcus (GC 4551) (Staphylococcus sp.): 4 mg/L (≈ 2.79 µM)
- MIC Coagulase Negative Staphylococcus (GC 6257) (Staphylococcus sp.): 1 mg/L (≈ 0.698 µM)
- MIC Staphylococcus aureus (ATCC 29213) (Staphylococcus sp.): 4 mg/L (≈ 2.79 µM)
- MIC Staphylococcus aureus (GC 1131) (Staphylococcus sp.): 4 mg/L (≈ 2.79 µM)
- MIC Staphylococcus aureus (GC 3051) (Staphylococcus sp.): 2 mg/L (≈ 1.4 µM)
- MIC Staphylococcus aureus (GC 3053) (Staphylococcus sp.): 4 mg/L (≈ 2.79 µM)
- MIC Staphylococcus aureus (GC 4541) (Staphylococcus sp.): 2 mg/L (≈ 1.4 µM)
- MIC Staphylococcus aureus (GC 4542) (Staphylococcus sp.): 8 mg/L (≈ 5.58 µM)
- MIC Staphylococcus aureus (GC 4544) (Staphylococcus sp.): 4 mg/L (≈ 2.79 µM)
- MIC Staphylococcus aureus (GC 4545) (Staphylococcus sp.): 2 mg/L (≈ 1.4 µM)
- MIC Staphylococcus aureus-SMITH (GC 4543) (Staphylococcus sp.): 2 mg/L (≈ 1.4 µM)
- MIC Staphylococcus aureus (ATCC 29213) (Staphylococcus sp.; strain ATCC 29213): 4 mg/L (≈ 2.79 µM)
- MIC Staphylococcus aureus (GC 1131) (Staphylococcus sp.; strain GC 1131): 4 mg/L (≈ 2.79 µM)
- MIC Staphylococcus aureus (GC 3051) (Staphylococcus sp.; strain GC 3051): 2 mg/L (≈ 1.4 µM)
- MIC Staphylococcus aureus (GC 3053) (Staphylococcus sp.; strain GC 3053): 4 mg/L (≈ 2.79 µM)
- MIC Staphylococcus aureus (GC 4541) (Staphylococcus sp.; strain GC 4541): 2 mg/L (≈ 1.4 µM)
- MIC Staphylococcus aureus (GC 4542) (Staphylococcus sp.; strain GC 4542): 8 mg/L (≈ 5.58 µM)
- MIC Staphylococcus aureus-SMITH (GC 4543) (Staphylococcus sp.; strain GC 4543): 2 mg/L (≈ 1.4 µM)
- MIC Staphylococcus aureus (GC 4544) (Staphylococcus sp.; strain GC 4544): 4 mg/L (≈ 2.79 µM)
- MIC Staphylococcus aureus (GC 4545) (Staphylococcus sp.; strain GC 4545): 2 mg/L (≈ 1.4 µM)
- MIC Coagulase Negative Staphylococcus (GC 4547) (Staphylococcus sp.; strain GC 4547): 2 mg/L (≈ 1.4 µM)
- MIC Coagulase Negative Staphylococcus (GC 4548) (Staphylococcus sp.; strain GC 4548): 1 mg/L (≈ 0.698 µM)
- MIC Coagulase Negative Staphylococcus (GC 4549) (Staphylococcus sp.; strain GC 4549): 1 mg/L (≈ 0.698 µM)
- MIC Coagulase Negative Staphylococcus (GC 4551) (Staphylococcus sp.; strain GC 4551): 4 mg/L (≈ 2.79 µM)
- MIC Coagulase Negative Staphylococcus (GC 6257) (Staphylococcus sp.; strain GC 6257): 1 mg/L (≈ 0.698 µM)
- MIC Streptococcus agalactiae (GC 4564) (Streptococcus sp.): 2 mg/L (≈ 1.4 µM)
- MIC Streptococcus pneumoniae (ATCC 6301) (Streptococcus sp.): 0.5 mg/L (≈ 0.349 µM)
- MIC Streptococcus pneumoniae (GC 1894) (Streptococcus sp.): 0.25 mg/L (≈ 0.174 µM)
- MIC Streptococcus pneumoniae (GC 4565) (Streptococcus sp.): 0.5 mg/L (≈ 0.349 µM)
- MIC Streptococcus pyogenes (GC 4563) (Streptococcus sp.): 1 mg/L (≈ 0.698 µM)
- MIC Streptococcus pneumoniae (ATCC 6301) (Streptococcus sp.; inoculum 5×10^5 CFU/mL, strain ATCC 6301): 0.5 mg/L (≈ 0.349 µM)
- MIC Streptococcus pneumoniae (GC 1894) (Streptococcus sp.; inoculum 5×10^5 CFU/mL, strain GC 1894): 0.25 mg/L (≈ 0.174 µM)
- MIC Streptococcus pyogenes (GC 4563) (Streptococcus sp.; inoculum 5×10^5 CFU/mL, strain GC 4563): 1 mg/L (≈ 0.698 µM)
- MIC Streptococcus agalactiae (GC 4564) (Streptococcus sp.; inoculum 5×10^5 CFU/mL, strain GC 4564): 2 mg/L (≈ 1.4 µM)
- MIC Streptococcus pneumoniae (GC 4565) (Streptococcus sp.; inoculum 5×10^5 CFU/mL, strain GC 4565): 0.5 mg/L (≈ 0.349 µM)
- MIC Escherichia coli (ATCC 25922) (Escherichia coli): 64 mg/L (≈ 44.6 µM)
- MIC Escherichia coli (GC 4559) (Escherichia coli): 64 mg/L (≈ 44.6 µM)
- MIC Escherichia coli (GC 4560) (Escherichia coli): 1 mg/L (≈ 0.698 µM)
Compound: COc1ccc(COCC2OC(OC3C(CO)OC(Oc4ccc(CC5NC(=O)C(C(C)c6ccccc6)NC(=O)CNC(=O)C(CO)NC(=O)C(C(O)C6CNC(=N)N6C6OC(CO)C(O)C(O)C6O)NC(=O)C(C(O)C6CNC(=N)N6)NC5=O)cc4)C(O)C3O)C(O)C(O)C2O)cc1F (stereo not drawn) [Example 237]
- MIC Staphylococcus haemolyticus (GC 4546) (Staphylococcus sp.): 1 mg/L (≈ 0.698 µM)
- MIC Staphylococcus haemolyticus (GC 4546) (Staphylococcus sp.; strain GC 4546): 1 mg/L (≈ 0.698 µM)
